Assay results from patent publication US20230103554A1, “TNFa SIGNALING [sequence] TUMOR-PROMOTING INFLAMMATION THAT CAN BE TARGETED TO THERAPY” (Baylor College of Medicine, priority 2020, published 2023).
“Also recorded” adds a separate entry of the source.

Key:
sTNFα production = test: NB-monocyte co-culture, TNFα ELISA of supernatant; assay type: cell-based, human
Method: (§1) Monocytes were directly cultured with wild-type or TNF, TNFR1, TNFR2 KO NB cell lines in ULA plates for 24 hours. Activation of NF-kB in monocytes and NB was measured by flow cytometry and cytokine production measured by ELISA from co-culture supernatant. To evaluate the contact-dependence of monocyte activation by NB, monocytes were cultured in ULA plates with seven-day NB conditioned medium mixed 1:1 with complete monocyte medium for 24 hours and analyzed for IL-6 production. To assess the growth advantage of NB cultured with monocytes, NB-luc cell lines and monocytes were seeded in tissue culture-treated white 96-well plates (1:1 ratio) and cultured for four days. Luminescence was measured using a TECAN Spark plate reader (TECAN). To evaluate changes in proliferation, NB was pulsed for 10 minutes in CellTrace Violet (2 μM, Invitrogen) and seeded at 100,000 cells per well in a 12-well tissue culture-treated plate. Monocytes were added directly to the NB monolayer at a density of 100,000 per well and incubated for four days. CellTrace Violet expression was analyzed by flow cytometry.
(§2) Cytokines released by monocytes were detected within co-culture supernatants using the Human TNF-alpha Quantikine ELISA Kit (TNFα, R&D Systems) and the Human IL-6 Quantikine ELISA Kit (IL-6, R&D Systems) according to manufacturer's guidelines. ELISA plates were read using a TECAN Spark plate reader (TECAN). Global cytokine regulation was evaluated using a custom Luminex panel containing the following cytokines: CX3CL1, CXCL10, EGF, FGF-2, Flt3L, G-CSF, GM-CSF, IL-1α, IL-1β, IL-1Ra, IL-4, IL-6, IL-8, IL-10, IL-12 (p40), IL-12 (p′70), M-CSF, MCP-1, MCP-3, MDC, MIP-1α, MIP-1β, TGFα, TNFα, TNFβ, and VEGF-A (Human Cytokine Panel A, Millipore-Sigma).

monocyte IL-6 production = test: NB-monocyte co-culture, IL-6 ELISA of supernatant; assay type: cell-based, human
Method: as §1, §2

[1] = test system: NF-κB signaling in NB cells; test: Intracellular IκBα in NB population of co-culture (PhosFlow flow cytometry); assay type: cell-based, human; conditions: TAPI 40 μM, 24 hours, vs vehicle control (FIG. 23C)
Method: as §1
(§3) To evaluate the expression of TNFα in NB and monocytes, cells were first stimulated with LPS (50 ng/mL) in the presence of GolgiStop (BD Biosciences) and fixed using CytoFix/Cytoperm buffer (BD Biosciences). Cells were then stained with TNFα-PE (BD Biosciences). To evaluate the expression of TNFR1 and TNFR2 on NB and monocytes, cells were stained with TNFR1-BV421 and TNFR2-APC (BD Biosciences) in FACS staining buffer containing 0.05% sodium azide to prevent receptor/antibody processing. To estimate changes in NF-kB expression, treated co-cultures were first stained with ZombieViolet (1 μL/test, Biolegend) to counterstain dead cells and APC-H7 CD45 and/or FITC-CD14 to label monocytes for 20 minutes at room temperature. […] All flow samples were run using an LSRII 5-laser flow cytometer (Texas Children's Hospital Cancer Center Flow Cytometry Core, Houston, Tex.) and analyzed using FlowJo Software (Treestar).

[2] = test system: NF-κB signaling in monocytes; test: Intracellular IκBα in monocyte population of co-culture (PhosFlow flow cytometry); assay type: cell-based, human; conditions: TAPI 40 μM, 24 hours, vs vehicle control
Method: as §1, §3

mTNFα = conditions: TAPI 40 μM, 24 hours, CD45+GD2− monocyte population
Method: (FIG. 13C) NB and monocyte co-cultures were treated with TNF converting enzyme inhibitor TAPI (40 μM) or vehicle control (Veh., 0.2% DMSO) for 24 hours. Surface expression of mTNFα within CD45+GD2− monocyte population was performed using flow cytometry. MFI as indicated. Data are from a representative of two experiments run in duplicate.

Row | Compound | soluble (s)TNFα production from monocytes (sTNFα production; CHLA-255/monocyte co-culture, IKKi 0-1000 nM (FIG. 12D, FIG. 19)) | IL-6 production from monocytes (monocyte IL-6 production; CHLA-255/monocyte co-culture, IKKi 0-1000 nM (FIG. 12C, FIG. 19)) | IL-6 production in NB-monocyte co-cultures (monocyte IL-6 production; IKK inhibitor VII 125 nM, 24 hours, vs 0.1% DMSO (FIG. 1C)) | IκBα expression level in NB cells [1] | intracellular IκBα expression in monocytes [2] | increase in surface staining for mTNFα (mTNFα) | reduction in sTNFα levels in co-culture supernatant (sTNFα production; TAPI 40 μM, 24 hours) | IL-6 levels in co-culture supernatant (monocyte IL-6 production; TAPI 40 μM, 24 hours, vs vehicle control)
1 | O=C(c1ccc(Nc2nccc(-c3cc4ccccc4s3)n2)cc1)N1CCC(N2CCCC2)CC1 [IKK inhibitor VII] | dose-dependent abrogation | dose-dependent abrogation | reversed IL-6 production |  |  |  |  | 
2 | CC(C)C[C@H](CC(=O)NO)C(=O)N[C@@H](Cc1ccc2ccccc2c1)C(=O)N[C@@H](C)C(=O)NCCN [TAPI, TAPI-1] |  |  |  | significant increase in IκBα expression level | no effect | 40% | 90% | increased the activation of monocytes as measured by IL-6 levels; also recorded: significantly increased IL-6 levels
